# Tests used:
# Assay in all cases: radiometric filter-binding kinase assay
# [1] = target: EPHB4 (human) (UniProt P54760); conditions: compound 10.0 µM
# [2] = target: IKBKB (human) (UniProt O14920); conditions: compound 10.0 µM
# [3] = target: YES1 (human) (UniProt P07947); conditions: compound 10.0 µM
# [4] = target: STK3 (human) (UniProt Q13188); conditions: compound 10.0 µM
# [5] = target: MYLK (human) (UniProt Q15746); conditions: compound 10.0 µM
# [6] = target: MAP2K1 (human) (UniProt Q02750)
# MAP2K1 (human), sequence (Q02750 whole entry, looked up): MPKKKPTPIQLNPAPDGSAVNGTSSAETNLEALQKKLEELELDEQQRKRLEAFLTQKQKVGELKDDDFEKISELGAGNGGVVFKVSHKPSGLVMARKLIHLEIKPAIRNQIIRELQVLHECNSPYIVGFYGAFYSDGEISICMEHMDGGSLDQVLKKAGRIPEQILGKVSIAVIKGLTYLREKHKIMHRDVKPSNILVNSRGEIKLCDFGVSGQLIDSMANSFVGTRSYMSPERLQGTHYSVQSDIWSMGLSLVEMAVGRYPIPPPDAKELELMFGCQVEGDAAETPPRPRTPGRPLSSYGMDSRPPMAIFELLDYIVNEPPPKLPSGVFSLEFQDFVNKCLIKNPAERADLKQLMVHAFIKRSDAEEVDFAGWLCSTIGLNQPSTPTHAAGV
# [7] = target: MKNK2 (human) (UniProt Q9HBH9); conditions: compound 10.0 µM
# [8] = target: PAK6 (human) (UniProt Q9NQU5); conditions: compound 10.0 µM
# [9] = target: EPHB1 (human) (UniProt P54762); conditions: compound 10.0 µM
# [10] = target: MAP3K9 (human) (UniProt P80192); conditions: compound 10.0 µM
# [11] = target: PIM1 (human) (UniProt P11309); conditions: compound 10.0 µM
# PIM1 (human), sequence (P11309 whole entry, looked up): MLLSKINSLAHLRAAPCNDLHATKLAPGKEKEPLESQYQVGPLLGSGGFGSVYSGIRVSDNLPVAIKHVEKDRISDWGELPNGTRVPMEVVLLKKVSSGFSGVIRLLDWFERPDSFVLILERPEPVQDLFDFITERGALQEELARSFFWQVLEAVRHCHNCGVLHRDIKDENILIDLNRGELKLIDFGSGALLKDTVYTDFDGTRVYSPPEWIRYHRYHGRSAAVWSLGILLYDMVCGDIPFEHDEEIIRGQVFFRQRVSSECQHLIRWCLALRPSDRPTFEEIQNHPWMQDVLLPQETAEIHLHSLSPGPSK
# [12] = target: CSNK2A1 (human) (UniProt P68400)
# CSNK2A1 (human), sequence (P68400 whole entry, looked up): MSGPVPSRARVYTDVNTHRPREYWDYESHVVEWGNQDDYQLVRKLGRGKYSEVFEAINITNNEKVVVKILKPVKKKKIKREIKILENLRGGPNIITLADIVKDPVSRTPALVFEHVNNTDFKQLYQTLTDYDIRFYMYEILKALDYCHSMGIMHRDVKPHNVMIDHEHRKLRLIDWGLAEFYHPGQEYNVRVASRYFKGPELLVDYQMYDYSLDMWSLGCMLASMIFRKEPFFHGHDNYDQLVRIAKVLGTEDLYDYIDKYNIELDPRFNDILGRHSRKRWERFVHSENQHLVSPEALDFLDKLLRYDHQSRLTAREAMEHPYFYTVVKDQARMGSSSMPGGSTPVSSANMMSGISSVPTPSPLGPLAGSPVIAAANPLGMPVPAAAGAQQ
# [13] = test system: RPS6KB1 (human), P23443 [T412E]
# RPS6KB1 (human), P23443 [T412E], sequence (P23443 whole entry T412E, looked up): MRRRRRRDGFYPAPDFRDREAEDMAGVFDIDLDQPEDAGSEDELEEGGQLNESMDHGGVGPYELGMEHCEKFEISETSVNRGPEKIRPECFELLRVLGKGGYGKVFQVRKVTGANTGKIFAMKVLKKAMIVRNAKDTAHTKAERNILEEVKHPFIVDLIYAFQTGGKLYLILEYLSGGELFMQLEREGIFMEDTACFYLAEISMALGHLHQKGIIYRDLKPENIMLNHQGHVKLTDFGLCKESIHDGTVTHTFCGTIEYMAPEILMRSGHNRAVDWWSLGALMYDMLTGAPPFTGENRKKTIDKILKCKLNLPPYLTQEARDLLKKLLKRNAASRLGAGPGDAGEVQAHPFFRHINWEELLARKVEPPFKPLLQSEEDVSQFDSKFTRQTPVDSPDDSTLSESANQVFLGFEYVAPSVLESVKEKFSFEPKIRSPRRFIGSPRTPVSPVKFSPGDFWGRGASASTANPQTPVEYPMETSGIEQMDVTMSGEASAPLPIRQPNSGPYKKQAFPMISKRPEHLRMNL
# [14] = target: NEK6 (human) (UniProt Q9HC98)
# NEK6 (human), sequence (Q9HC98 whole entry, looked up): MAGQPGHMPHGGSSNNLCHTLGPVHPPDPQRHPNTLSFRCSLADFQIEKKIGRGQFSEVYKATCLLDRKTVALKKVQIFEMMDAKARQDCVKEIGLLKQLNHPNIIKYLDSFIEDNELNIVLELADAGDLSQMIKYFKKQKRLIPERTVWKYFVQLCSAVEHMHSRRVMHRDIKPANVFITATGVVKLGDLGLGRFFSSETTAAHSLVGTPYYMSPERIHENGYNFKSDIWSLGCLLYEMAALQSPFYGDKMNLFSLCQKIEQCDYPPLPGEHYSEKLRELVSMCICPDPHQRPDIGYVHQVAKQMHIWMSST
# [15] = target: PIM3 (human) (UniProt Q86V86); conditions: compound 10.0 µM
# [16] = target: EEF2K (human) (UniProt O00418); conditions: compound 10.0 µM
# [17] = target: GCK (human) (UniProt Q12851); conditions: compound 10.0 µM
# [18] = target: SRPK1 (human) (UniProt Q96SB4); conditions: compound 10.0 µM
# [19] = target: INSRR (human) (UniProt P14616); conditions: compound 10.0 µM
# [20] = target: DAPK1 (human) (UniProt P53355); conditions: compound 10.0 µM
# [21] = target: MAP2K2 (human) (UniProt P36507); conditions: compound 10.0 µM
# [22] = target: TTK (human) (UniProt P33981); conditions: compound 10.0 µM
# [23] = target: BTK (human) (UniProt Q06187); conditions: compound 10.0 µM
# BTK (human), sequence (Q06187 whole entry, looked up): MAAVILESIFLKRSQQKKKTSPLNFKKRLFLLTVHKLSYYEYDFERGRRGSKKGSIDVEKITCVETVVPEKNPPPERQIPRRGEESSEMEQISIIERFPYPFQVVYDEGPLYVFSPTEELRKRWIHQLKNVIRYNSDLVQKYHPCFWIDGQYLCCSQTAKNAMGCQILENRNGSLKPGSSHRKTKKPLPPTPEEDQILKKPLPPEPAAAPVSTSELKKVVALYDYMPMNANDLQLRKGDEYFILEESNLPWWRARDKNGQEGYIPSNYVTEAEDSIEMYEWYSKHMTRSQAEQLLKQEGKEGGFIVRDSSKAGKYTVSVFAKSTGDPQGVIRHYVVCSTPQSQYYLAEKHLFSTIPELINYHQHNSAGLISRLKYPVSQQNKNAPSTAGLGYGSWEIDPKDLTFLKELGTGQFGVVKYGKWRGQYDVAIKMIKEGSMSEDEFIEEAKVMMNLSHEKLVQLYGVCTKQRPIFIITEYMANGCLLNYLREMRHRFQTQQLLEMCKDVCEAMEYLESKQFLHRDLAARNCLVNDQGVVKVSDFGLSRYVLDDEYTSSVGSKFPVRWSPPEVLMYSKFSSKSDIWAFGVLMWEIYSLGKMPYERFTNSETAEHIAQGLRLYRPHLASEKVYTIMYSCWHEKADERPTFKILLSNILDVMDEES
# [24] = target: PIM2 (human) (UniProt Q9P1W9); conditions: compound 10.0 µM
# [25] = test system: PAK2 (human), Q13177 [T402E]; conditions: compound 10.0 µM
# [26] = target: RPS6KA5 KD1 KD2 (human) (UniProt O75582)
# RPS6KA5 KD1 KD2 (human), sequence (O75582 whole entry, looked up): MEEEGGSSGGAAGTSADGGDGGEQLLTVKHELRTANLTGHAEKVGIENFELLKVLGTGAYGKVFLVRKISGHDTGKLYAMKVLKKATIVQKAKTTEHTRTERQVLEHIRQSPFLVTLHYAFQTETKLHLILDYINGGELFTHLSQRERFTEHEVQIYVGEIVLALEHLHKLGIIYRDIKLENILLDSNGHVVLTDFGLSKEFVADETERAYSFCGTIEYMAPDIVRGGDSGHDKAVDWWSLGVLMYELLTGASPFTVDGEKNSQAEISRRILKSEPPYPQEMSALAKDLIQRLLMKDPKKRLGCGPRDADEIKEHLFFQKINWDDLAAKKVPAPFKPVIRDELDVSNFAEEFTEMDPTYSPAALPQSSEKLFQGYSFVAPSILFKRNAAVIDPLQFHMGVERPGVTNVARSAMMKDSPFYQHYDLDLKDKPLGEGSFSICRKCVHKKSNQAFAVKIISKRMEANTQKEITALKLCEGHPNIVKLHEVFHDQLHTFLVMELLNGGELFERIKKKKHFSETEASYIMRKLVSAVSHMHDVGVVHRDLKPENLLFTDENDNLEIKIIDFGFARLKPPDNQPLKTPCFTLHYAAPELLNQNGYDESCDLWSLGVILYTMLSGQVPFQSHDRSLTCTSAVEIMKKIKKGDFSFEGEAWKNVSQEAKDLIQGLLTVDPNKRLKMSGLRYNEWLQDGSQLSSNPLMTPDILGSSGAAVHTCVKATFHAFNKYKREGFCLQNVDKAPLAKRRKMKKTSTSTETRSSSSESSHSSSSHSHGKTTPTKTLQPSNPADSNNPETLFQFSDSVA
# [27] = target: CDK2 CCNA2 (human) (UniProt P20248+P24941)
# [28] = target: MARK4 (human) (UniProt Q96L34); conditions: compound 10.0 µM
# [29] = target: CHEK1 (human) (UniProt O14757)
# CHEK1 (human), sequence (O14757 whole entry, looked up): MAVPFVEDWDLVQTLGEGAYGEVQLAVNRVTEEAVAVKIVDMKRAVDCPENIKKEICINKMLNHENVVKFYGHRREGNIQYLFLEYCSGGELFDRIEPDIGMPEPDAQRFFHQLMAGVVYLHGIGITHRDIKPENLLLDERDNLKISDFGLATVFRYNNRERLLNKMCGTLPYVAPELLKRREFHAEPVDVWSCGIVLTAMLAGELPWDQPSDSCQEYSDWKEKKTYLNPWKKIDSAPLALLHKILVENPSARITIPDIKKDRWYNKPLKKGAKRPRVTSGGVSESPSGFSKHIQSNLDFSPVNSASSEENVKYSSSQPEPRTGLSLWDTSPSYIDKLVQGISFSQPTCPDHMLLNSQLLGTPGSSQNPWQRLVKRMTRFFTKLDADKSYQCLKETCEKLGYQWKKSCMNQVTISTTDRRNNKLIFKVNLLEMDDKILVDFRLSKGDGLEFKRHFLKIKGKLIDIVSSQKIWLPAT
# [30] = target: EPHA4 (human) (UniProt P54764); conditions: compound 10.0 µM
# [31] = target: MAPK9 (human) (UniProt P45984); conditions: compound 10.0 µM
# [32] = target: TBK1 (human) (UniProt Q9UHD2); conditions: compound 10.0 µM
# [33] = target: MARK3 (human) (UniProt P27448); conditions: compound 10.0 µM
# [34] = target: MAP3K5 (human) (UniProt Q99683); conditions: compound 10.0 µM
# [35] = target: MAPKAPK2 (human) (UniProt P49137)
# MAPKAPK2 (human), sequence (P49137 whole entry, looked up): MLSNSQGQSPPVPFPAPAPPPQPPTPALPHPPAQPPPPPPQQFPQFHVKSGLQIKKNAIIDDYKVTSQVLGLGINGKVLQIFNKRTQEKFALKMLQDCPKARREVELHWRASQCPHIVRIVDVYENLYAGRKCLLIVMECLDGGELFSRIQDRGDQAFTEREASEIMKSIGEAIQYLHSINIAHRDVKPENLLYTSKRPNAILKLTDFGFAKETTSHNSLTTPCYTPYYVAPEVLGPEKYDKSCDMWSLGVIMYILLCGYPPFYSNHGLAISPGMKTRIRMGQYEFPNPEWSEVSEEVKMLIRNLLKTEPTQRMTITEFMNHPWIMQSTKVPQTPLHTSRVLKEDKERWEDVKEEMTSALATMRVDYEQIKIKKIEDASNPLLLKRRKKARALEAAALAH
# [36] = target: PKN2 (human) (UniProt Q16513); conditions: compound 10.0 µM
# YES1 (human), sequence (P07947 whole entry, looked up): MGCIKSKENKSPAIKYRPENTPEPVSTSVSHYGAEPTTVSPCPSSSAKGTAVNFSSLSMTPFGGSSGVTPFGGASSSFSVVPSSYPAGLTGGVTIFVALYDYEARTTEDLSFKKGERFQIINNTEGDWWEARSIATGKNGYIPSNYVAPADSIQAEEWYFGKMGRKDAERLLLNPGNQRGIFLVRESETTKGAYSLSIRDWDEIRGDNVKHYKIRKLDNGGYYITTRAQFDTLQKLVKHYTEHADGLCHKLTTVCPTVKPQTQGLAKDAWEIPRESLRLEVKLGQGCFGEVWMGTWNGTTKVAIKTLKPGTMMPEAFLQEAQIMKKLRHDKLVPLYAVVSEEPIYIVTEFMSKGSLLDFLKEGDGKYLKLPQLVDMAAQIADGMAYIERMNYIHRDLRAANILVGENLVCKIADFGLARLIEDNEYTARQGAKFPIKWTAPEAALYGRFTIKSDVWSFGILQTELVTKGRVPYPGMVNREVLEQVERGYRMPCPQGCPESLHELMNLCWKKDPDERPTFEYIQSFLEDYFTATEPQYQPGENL
compound,measurement,setting,value
Cc1ccc2c(c1)C(=O)[C@@]1(O)CCN(c3ccccc3)C1=N2,residual activity,[1],99%
same,residual activity,[2],96%
same,residual activity,[3],96%
same,residual activity,[4],104%
same,residual activity,[5],74%
same,residual activity,[6]; compound 10.0 µM,89%
same,residual activity,[6]; compound 100.0 µM,99%
same,residual activity,[7],104%
same,residual activity,[8],83%
same,residual activity,[9],97%
same,residual activity,[10],101%
same,residual activity,[11],87%
same,residual activity,[12]; compound 10.0 µM,110%
same,residual activity,[12]; compound 100.0 µM,101%
same,residual activity,[13]; compound 10.0 µM,92%
same,residual activity,[13]; compound 100.0 µM,71%
same,residual activity,[14]; compound 10.0 µM,107%
same,residual activity,[14]; compound 100.0 µM,85%
same,residual activity,[15],83%
same,residual activity,[16],83%
same,residual activity,[17],97%
same,residual activity,[18],88%
same,residual activity,[19],88%
same,residual activity,[20],93%
same,residual activity,[21],81%
same,residual activity,[22],87%
same,residual activity,[23],82%
same,residual activity,[24],93%
same,residual activity,[25],87%
same,residual activity,[26]; compound 10.0 µM,83%
same,residual activity,[26]; compound 100.0 µM,75%
same,residual activity,[27]; compound 10.0 µM,116%
same,residual activity,[27]; compound 100.0 µM,92%
same,residual activity,[28],94%
same,residual activity,[29]; compound 10.0 µM,90%
same,residual activity,[29]; compound 100.0 µM,96%
same,residual activity,[30],108%
same,residual activity,[31],88%
same,residual activity,[32],94%
same,residual activity,[33],91%
same,residual activity,[34],91%
same,residual activity,[35]; compound 10.0 µM,82%
same,residual activity,[35]; compound 100.0 µM,80%
same,residual activity,[36],95%
